From patent publication US11337982B2, “Combined treatment with a TLR7 agonist and an HBV capsid assembly inhibitor” (Hoffmann-La Roche Inc., priority 2016, dated 2022)

Experiments:
[1] = Conversion of prodrug into active moiety
AAV-HBV = AAV-HBV mouse model, serum HBV biomarkers; assay type: in vivo; conditions: Compound 5 20 mg/kg QD, p.o., after 42 days of treatment
From the text: 4-week old male C57BL/6 mice, specific pathogen free, were purchased from Shanghai Laboratory Animal Center of Chinese Academy of Sciences (SLAC) and housed in an animal care facility in individually ventilated cages under controlled temperature and light conditions following the Institutional Animal Care guidelines. AAV-HBV virus was purchased from Beijing FivePlus Molecular Medicine Institute (Beijing, China). This recombinant virus carries 1.3 copies of the HBV genome, which was packaged in AAV serotype 8 (AAV8) capsids. C57BL/6 mice were injected with 200 μL of recombinant virus, diluted in saline buffer, through tail vein injection. After 3-4 weeks, animals were bled to monitor HBV genomic DNA and surface antigen (HBsAg) in serum, and then were randomly grouped according to these HBV biomarkers.
Serum HBsAg was measured using CLIA kits (Autobio Diagnostics Co., Ltd, Zhengzhou, China) according to the manufacturer's instructions. The lower limit of detection (LLOQ) for HBsAg was 0.05 IU/mL. 500-fold dilution of serum was used to obtain values within the linear range of standard curves. Serum HBV DNA was extracted using a MagNA Pure 96 DNA and Viral NA Small Volume Kit (Roche) following the manufacturer's instructions. The DNA samples were analyzed by real-time quantitative PCR (qPCR) using a HBV-specific primer and probe set for specific amplification and detection of a 128 bp HBV genome region from the nucleotide 2969 to 3096. The sequences of the primers and probe are shown as follows: […]
Anti-HBs antibody was examined in mouse serum using the anti-HBs CLIA kit (Antobio, Zhengzhou, China) according to the manufacturer's instruction with modification. ˜15 μL of the diluted (1:3) mouse serum samples were thawed at room temperature for 10 mins. 6 μL of sample was further diluted in 30 μL of PBS to make the final dilution 1:18 for the antibody test. Standard curve were prepared with monoclonal mouse antibody Anti-Hepatitis B Virus Surface Antigen (Ad/Ay) antibody [S35] (Abcam ab20402) in diluted Naive mouse serum (1:18 dilution in PBS). 1 μL of 1 mg/ml anti-HBs antibody was added into 500 μL of diluted mouse serum to make standard 1 as final concentration 2000 ng/ml. 50 μL of standard 1 then was added into 150 μL of diluted mouse serum to make standard 2 (1:4 dilution). 7 points standards were required for the test. The final concentration of standard 7 was (0.488 ng/ml). Blank serum was used as background control. 25 μL of diluted serum sample/standards/Blank was transferred into 96-well plate. Samples were incubated at room temperature for 1 hour followed by 3 times washing with 300 μL of PBST. 0.5 mg/ml of Goat anti-mouse IgG Biotinylated (Mabtech 3825-6-250) was diluted into PBS to final concentration 1 μg/ml (1:500 dilution). […] anti-mouse IgG Bio was added into plate, incubated at room temperature for 1 hour followed by 3 times washing with 300 μL of PBST. Streptavidin-HRP (Mabtech 3310-9) was diluted into PBS (1:250). 50 μL of diluted Streptavidin-HRP was incubated at room temperature for 1 hour followed by 3 times washing with 300 μL of PBST. Substrate A and substrate B (AntuBio) were mixed. 50 μL of mixture were added into plated and incubated for 10 mins before subjected to luminescence reading with Envision microplate reader. The lower limit of detection for anti HBsAb was 36 ng/mL. The anti HBsAb results were calculated from Luminescence raw data fitting on the anti HBsAb standard curve by SoftMax Pro (v5.4.1) software.
In Group 01, animals were treated with Vehicle every other day (QOD) for 42 days and served as the placebo control. In Group 02, Compound 4 was dosed once weekly (QW) at 10 mg/kg for 42 days. Compound 5 was dosed once daily (QD) at 20 mg/kg for 42 days alone in Group 03, or in combination with 10 mg/kg of Compound 4 QW in Group 04. All the test articles were administered by oral gavage (PO) with a total dose volume of 10 mL/kg. The 42-day treatment was followed by a 42-day off-treatment period. […]

human TLR7 = target: T1, human TLR7 (Homo sapiens, UniProt Q9NYK1); assay: HEK293-Blue-hTLR-7 cells assay (SEAP reporter); assay type: cell-based; conditions: active moiety; read-out: potency to active TLR7 in HEK293-hTLR7 assay
T1 sequence (Q9NYK1 27-1049): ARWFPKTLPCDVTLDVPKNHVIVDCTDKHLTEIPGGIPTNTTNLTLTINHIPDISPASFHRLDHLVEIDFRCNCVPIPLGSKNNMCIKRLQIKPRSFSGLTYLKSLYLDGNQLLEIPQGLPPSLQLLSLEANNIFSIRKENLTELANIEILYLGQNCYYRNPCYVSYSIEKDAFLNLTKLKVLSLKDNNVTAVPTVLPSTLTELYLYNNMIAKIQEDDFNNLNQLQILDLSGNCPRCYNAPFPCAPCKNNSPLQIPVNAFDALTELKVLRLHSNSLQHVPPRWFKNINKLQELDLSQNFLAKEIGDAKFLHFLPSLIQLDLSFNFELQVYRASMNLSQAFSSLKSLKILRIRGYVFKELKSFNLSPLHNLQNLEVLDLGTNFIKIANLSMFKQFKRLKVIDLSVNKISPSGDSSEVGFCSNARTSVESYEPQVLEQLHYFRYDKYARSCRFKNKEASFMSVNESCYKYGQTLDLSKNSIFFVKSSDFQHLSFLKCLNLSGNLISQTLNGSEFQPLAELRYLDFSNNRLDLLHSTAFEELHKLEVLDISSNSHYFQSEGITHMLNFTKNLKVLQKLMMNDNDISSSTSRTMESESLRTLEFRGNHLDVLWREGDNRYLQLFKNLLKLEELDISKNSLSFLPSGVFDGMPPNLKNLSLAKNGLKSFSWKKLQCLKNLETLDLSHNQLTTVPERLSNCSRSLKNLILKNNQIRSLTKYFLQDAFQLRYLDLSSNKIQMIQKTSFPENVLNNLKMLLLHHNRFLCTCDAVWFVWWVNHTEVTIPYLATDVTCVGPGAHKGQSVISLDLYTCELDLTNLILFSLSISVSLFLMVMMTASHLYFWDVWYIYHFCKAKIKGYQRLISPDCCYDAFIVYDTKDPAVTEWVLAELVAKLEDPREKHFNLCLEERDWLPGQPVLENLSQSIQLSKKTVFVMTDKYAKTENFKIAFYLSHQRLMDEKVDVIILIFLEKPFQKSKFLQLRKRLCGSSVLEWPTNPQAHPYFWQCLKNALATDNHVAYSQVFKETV
From the text: HEK293-Blue-hTLR-7 Cells Assay:
A stable HEK293-Blue-hTLR-7 cell line was purchased from InvivoGen (Cat.#: hkb-htlr7, San Diego, Calif., USA). These cells were designed for studying the stimulation of human TLR7 by monitoring the activation of NF-κB. A reporter gene of secreted embryonic alkaline phosphatase (SEAP) was placed under the control of the IFN-β[…]minimal promoter fused to five NF-κB and AP-1-binding sites. SEAP was induced by the activation of NF-κB and AP-1 upon stimulating HEK-Blue hTLR7 cells with TLR7 ligands. SEAP activity in cell culture supernatant was determined using QUANTI-Blue™ kit (Cat.#: rep-qb1, Invivogen, San Diego, Calif., USA) at a wavelength of 640 nm. Such reporter assays have been widely used for evaluation of TLR7 agonism (Tsuneyasu Kaisho and Takashi Tanaka, Trends in Immunology, Volume 29, Issue 7, July 2008, […]; Hiroaki Hemmi et al, Nature Immunology 3, 196-200 (2002).
Specifically, HEK293-Blue-hTLR7 cells were incubated at a density of 250,000˜450,000 cells/mL in a volume of 180 μL in a 96-well plate in Dulbecco's Modified Eagle's medium (DMEM) containing 4.5 g/L glucose, 50 U/mL penicillin, […], […], 2 mM L-glutamine, 10% (v/v) heat-inactivated fetal bovine serum for 24 h. The cells were then incubated with 20 μL of test compound in a serial dilution at 37° C. in a CO2 incubator for 20 hours. Then 20 μL of the supernatant from each well was incubated with 180 μL Quanti-blue substrate solution at 37° C. for 2 hours and the absorbance was measured at 620˜655 nm using a spectrophotometer.

HBV = HBV infected transgenic mouse or humanized mouse models; cited from earlier work
[2] = Example 5, Compound 4 10 mg/kg QW
[3] = Example 6, Compound 3 1 mg/kg QOW

CCCN(C)C(=O)n1c(=O)n(Cc2ccc(Cl)cc2)c2nc([S@](=N)(=O)CC)nc(N)c21 [Compound 2, 6-amino-9-[(4-chlorophenyl)methyl]-2-[S(R)-ethylsulfonimidoyl]-N-methyl-8-oxo-N-propyl-purine-7-carboxamide]
conversion of prodrug into the active moiety [1]: efficiently converted

CCOC(=O)C1=C(CN2CCN3C(=O)N(CC(C)(C)C(=O)O)C[C@@H]3C2)NC(c2nccs2)=N[C@H]1c1cccc(F)c1C [Compound 5, 3-[(8aS)-7-[[(4S)-5-ethoxycarbonyl-4-(3-fluoro-2-methyl-phenyl)-2-thiazol-2-yl-1,4-dihydropyrimidin-6-yl]methyl]-3-oxo-5,6,8,8a-tetrahydro-1H-imidazo[1,5-a]pyrazin-2-yl]-2,2-dimethyl-propanoic acid]
HBV DNA reduction (AAV-HBV; [2]): significant reduction
HBsAg reduction (AAV-HBV; [2]): significant reduction
HBV DNA reduction (AAV-HBV; [3]): significant reduction
HBsAg reduction (AAV-HBV; [3]): significant reduction

CC[S@@](=N)(=O)c1nc(N)c2[nH]c(=O)n(Cc3ccc(C)cc3)c2n1 [Compound 4f-A, 6-amino-2-(S(R)-ethylsulfonimidoyl)-9-(p-tolylmethyl)-7H-purin-8-one]
EC50 (human TLR7): 110 nM

CC[S@](=N)(=O)c1nc(N)c2[nH]c(=O)n(Cc3ccc(Cl)cc3)c2n1 (single isomer, unassigned) [Compound 1e-A]
EC50 (human TLR7): 71 nM

CC[S@@](=N)(=O)c1nc(N)c2[nH]c(=O)n(Cc3ccc(Cl)cc3)c2n1 [Compound 1e-B]
EC50 (human TLR7): 85 nM

COC(=O)C1=C(C)NC(c2ncc(F)cc2F)=N[C@H]1c1ccc(F)cc1Cl [Bay 41-4109]
in vivo efficacy, HBV DNA (HBV): in vivo efficacy with HBV DNA reduction

CCCN(C)C(=O)n1c(=O)n(Cc2ccc(C)cc2)c2nc([S@](=N)(=O)CC)nc(N)c21 [Compound 4, 6-Amino-2-[S(R)-(ethylsulfonimidoyl)]-N-methyl-8-oxo-N-propyl-9-(p-tolylmethyl)purine-7-carboxamide]
HBV DNA reduction (AAV-HBV; [2]): significant reduction
HBsAg reduction (AAV-HBV; [2]): significant reduction
conversion of prodrug into the active moiety [1]: efficiently converted

CCCN(C)C(=O)n1c(=O)n(Cc2ccc(Cl)cc2)c2nc([S@@](=N)(=O)CC)nc(N)c21 [Compound 1, 6-Amino-9-[(4-chlorophenyl)methyl]-2-[S(S)-ethylsulfonimidoyl]-N-methyl-8-oxo-N-propyl-purine-7-carboxamide]
conversion of prodrug into the active moiety [1]: efficiently converted

CCN(C)C(=O)n1c(=O)n(Cc2ccc(Cl)cc2)c2nc([S@@](=N)(=O)CC)nc(N)c21 [Compound 3, 6-Amino-9-[(4-chlorophenyl)methyl]-N-ethyl-2-[S(S)-(ethylsulfonimidoyl)]-N-methyl-8-oxo-purine-7-carboxamide]
HBV DNA reduction (AAV-HBV; [3]): significant reduction
HBsAg reduction (AAV-HBV; [3]): significant reduction
conversion of prodrug into the active moiety [1]: efficiently converted
